What is called EC50 is the concentration at which the effect is half-maximal. High values mean a less potent agent, low ones a more potent agent.

The assay deals with T1, hFXR (Homo sapiens, UniProt Q96RI1).
T1 construct: expressed in transfected cells; host or cells: CV-1 cells
T1 sequence (Q96RI1 1-486): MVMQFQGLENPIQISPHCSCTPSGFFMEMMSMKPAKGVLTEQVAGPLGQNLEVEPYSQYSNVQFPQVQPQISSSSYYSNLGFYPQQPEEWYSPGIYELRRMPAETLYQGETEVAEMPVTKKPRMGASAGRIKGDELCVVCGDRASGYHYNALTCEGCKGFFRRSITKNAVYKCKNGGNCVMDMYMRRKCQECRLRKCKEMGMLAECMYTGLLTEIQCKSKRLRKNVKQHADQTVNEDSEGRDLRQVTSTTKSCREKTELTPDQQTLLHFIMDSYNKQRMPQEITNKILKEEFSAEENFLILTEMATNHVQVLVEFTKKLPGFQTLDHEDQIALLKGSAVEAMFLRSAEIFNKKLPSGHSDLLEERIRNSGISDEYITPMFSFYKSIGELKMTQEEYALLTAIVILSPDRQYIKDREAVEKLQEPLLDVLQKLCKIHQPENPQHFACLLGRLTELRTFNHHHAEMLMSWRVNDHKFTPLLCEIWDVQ
T1 sequence (P19793 1-462 partner): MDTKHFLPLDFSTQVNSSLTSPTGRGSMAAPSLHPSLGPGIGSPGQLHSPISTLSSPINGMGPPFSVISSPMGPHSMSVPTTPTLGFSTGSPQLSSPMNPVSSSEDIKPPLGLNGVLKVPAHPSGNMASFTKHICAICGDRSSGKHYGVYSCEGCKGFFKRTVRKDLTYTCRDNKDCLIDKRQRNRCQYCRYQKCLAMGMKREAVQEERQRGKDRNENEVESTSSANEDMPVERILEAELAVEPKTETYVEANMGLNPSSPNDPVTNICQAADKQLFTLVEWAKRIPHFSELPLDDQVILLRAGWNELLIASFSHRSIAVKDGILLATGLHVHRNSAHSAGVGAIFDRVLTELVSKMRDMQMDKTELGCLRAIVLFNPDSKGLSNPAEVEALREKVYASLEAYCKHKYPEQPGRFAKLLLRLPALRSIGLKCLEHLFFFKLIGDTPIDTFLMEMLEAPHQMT
The assay can be described thus: In Vitro FXR Assay (TK): hFXR/hRXR TK-ECRE-luc reporter in transfected CV-1 cells. The format is cell-based. Conditions: 18 hrs incubation, luminescence, compounds with maximum efficacy <25% of the Fexarmine control classified as '+'. The protocol:
Example B-1: In Vitro FXR Assay (TK)
CV-1 cells were seeded at a density of 2,000,000 cells in a T175 flask with DMEM+10% charcoal double-stripped FBS and incubated at 37° C. in 5% CO2 for 18 h (O/N).
After 18 h of incubation, the medium in the T175 flask was changed with fresh DMEM+10% charcoal super-stripped serum. In a polypropylene tube, 2500 μL OptiMEM (Life Technologies, Cat #31985-062) was combined with expression plasmids for hFXR, hRXR, TK-ECRE-luc and pCMX-YFP. The tube was then briefly vortexed and incubated at room temperature for 5 minutes. Transfection reagent (X-tremeGENE HP from Roche, Cat #06 366 236 001) was added to the OptiMEM/plasmid mixture vortexed and incubated at room temperature for 20 minutes. Following incubation, the transfection reagent/DNA mixture complex was added to cells in the T175 flask and the cells were incubated at 37° C. in 5% CO2 for 18 h (O/N).
Compounds were serially diluted in DMSO and added to transfected CV-1 cells. The cells were then incubated for 18 hrs. The next day cells were lysed and examined for luminescence.
`COc1ncc(-c2cccc(N(C[C@H]3CC[C@H](c4ccc(OC)c(C)n4)CC3)C(=O)[C@H]3CC[C@H](O)CC3)c2)s1` [Compound 9.02, trans-4-Hydroxy-N-((trans-4-(5-methoxy-6-methylpyridin-2-yl)cyclohexyl)methyl)-N-(3-(2-methoxythiazol-5-yl)phenyl)cyclohexanecarboxamide] came in with an EC50 of at most 250 nM.
In the case of `COC(=O)c1ncc(-c2cccc(N(C[C@H]3CC[C@H](c4ccc(OC)c(C)c4)CC3)C(=O)[C@H]3CC[C@H](O)CC3)c2)s1` [Compound 7.27, Methyl 5-(3-(trans-4-hydroxy-N-((trans-4-(4-methoxy-3-methylphenyl)cyclohexyl)methyl)cyclohexanecarboxamido)phenyl)thiazole-2-carboxylate], the EC50 fell in the range of 250 to 1000 nM.
As to `COc1ccc([C@H]2CC[C@H](CN(c3cccc(-c4nc(C)cs4)c3)C(=O)[C@H]3CC[C@H](O)CC3)CC2)cc1C` [Compound 7.01, trans-4-Hydroxy-N-((trans-4-(4-methoxy-3-methylphenyl)cyclohexyl)methyl)-N-(3-(4-methylthiazol-2-yl)phenyl)cyclohexanecarboxamide], the EC50 was at least 1000 nM.
Turning to `COc1ccc([C@H]2CC[C@H](CN(c3cccc(-c4cnc(N5CCCC5)s4)c3)C(=O)[C@H]3CC[C@H](O)CC3)CC2)cc1C` [Compound 6, trans-4-Hydroxy-N-((trans-4-(4-methoxy-3-methylphenyl)cyclohexyl)methyl)-N-(3-(2-(pyrrolidin-1-yl)thiazol-5-yl)phenyl)cyclohexanecarboxamide], the half-maximal effective concentration (EC50) was at most 250 nM.
Regarding `COc1ccc([C@H]2CC[C@H](CN(c3cccc(-c4cnc(N5CCOCC5)s4)c3)C(=O)[C@H]3CC[C@H](O)CC3)CC2)cc1C` [Compound 7.15, trans-4-Hydroxy-N-((trans-4-(4-methoxy-3-methylphenyl)cyclohexyl)methyl)-N-(3-(2-morpholinothiazol-5-yl)phenyl)cyclohexanecarboxamide], the EC50 is at most 250 nM.
For `COc1ccc([C@H]2CC[C@H](CN(c3cccc(-c4cnc(C5CCCCC5)s4)c3)C(=O)[C@H]3CC[C@H](O)CC3)CC2)cc1C` [Compound 7.09, trans-N-(3-(2-Cyclohexylthiazol-5-yl)phenyl)-4-hydroxy-N-((trans-4-(4-methoxy-3-methylphenyl)cyclohexyl)methyl) cyclohexanecarboxamide], the EC50 was 250 to 1000 nM.
The figure for `COc1ccc([C@H]2CC[C@H](CN(c3cccc(COc4nccs4)c3)C(=O)[C@H]3CC[C@H](O)CC3)CC2)cc1C` [Compound 17, trans-4-Hydroxy-N-((trans-4-(4-methoxy-3-methylphenyl)cyclohexyl)methyl)-N-(3-((thiazol-2-yloxy)methyl)phenyl)cyclohexanecarboxamide] is at most 250 nM.
Regarding `COc1ccc([C@H]2CC[C@H](CN(c3cccc(C#Cc4cscn4)c3)C(=O)[C@H]3CC[C@H](O)CC3)CC2)cc1C` [Compound 8, trans-4-Hydroxy-N-((trans-4-(4-methoxy-3-methylphenyl)cyclohexyl)methyl)-N-(3-(thiazol-4-ylethynyl)phenyl)cyclohexanecarboxamide], the EC50 was at most 250 nM.
As for `COc1ccc([C@H]2CC[C@H](CN(c3cccc(-c4cncs4)c3)C(=O)[C@H]3CC[C@H](O)CC3)CC2)cc1C` [Compound 6.02, trans-4-Hydroxy-N-((trans-4-(4-methoxy-3-methylphenyl)cyclohexyl)methyl)-N-(3-(thiazol-5-yl)phenyl)cyclohexanecarboxamide], the EC50 lay within 250 to 1000 nM.
The figure for `COc1ccc([C@H]2CC[C@H](CN(c3cccc(-c4cnc(C(F)(F)F)s4)c3)C(=O)[C@H]3CC[C@H](O)CC3)CC2)cc1C` [Compound 7.23, trans-4-Hydroxy-N-((trans-4-(4-methoxy-3-methylphenyl)cyclohexyl)methyl)-N-(3-(2-(trifluoromethyl)thiazol-5-yl)phenyl)cyclohexanecarboxamide] is at most 250 nM; for `COc1ccc([C@H]2CC[C@H](CN(c3cccc(-c4cnc(-c5ccccc5)s4)c3)C(=O)[C@H]3CC[C@H](O)CC3)CC2)cc1C` [Compound 7.10, trans-4-Hydroxy-N-((trans-4-(4-methoxy-3-methylphenyl)cyclohexyl)methyl)-N-(3-(2-phenylthiazol-5-yl)phenyl)cyclohexanecarboxamide] it is at most 250 nM.
Compound `COc1ccc([C@H]2CC[C@H](CN(c3cccc(-c4cnc(OCCO)s4)c3)C(=O)[C@H]3CC[C@H](O)CC3)CC2)cc1C` [Compound 7.18, trans-4-Hydroxy-N-(3-(2-(2-hydroxyethoxy)thiazol-5-yl)phenyl)-N-((trans-4-(4-methoxy-3-methylphenyl)cyclohexyl)methyl) cyclohexanecarboxamide] had an EC50 of at most 250 nM.
For `CN(C)c1ccc([C@H]2CC[C@H](CN(c3cccc(-c4cnc(C5CC5)s4)c3)C(=O)[C@H]3CC[C@H](O)CC3)CC2)cn1` [Compound 9.07, trans-N-(3-(2-Cyclopropylthiazol-5-yl)phenyl)-N-((trans-4-(6-(dimethylamino)pyridin-3-yl)cyclohexyl)methyl)-4-hydroxycyclohexanecarboxamide] the value was at most 250 nM.
For `COc1ccc([C@H]2CC[C@H](CN(c3cccc(-c4cnc(CO)s4)c3)C(=O)[C@H]3CC[C@H](O)CC3)CC2)cc1C` [Compound 7.19, trans-4-Hydroxy-N-(3-(2-(hydroxymethyl)thiazol-5-yl)phenyl)-N-((trans-4-(4-methoxy-3-methylphenyl)cyclohexyl)methyl) cyclohexanecarboxamide] the value was 250 to 1000 nM.
The compound `COc1ncc(-c2cccc(N(C[C@H]3CC[C@H](c4ccc5c(c4)c(F)nn5C)CC3)C(=O)[C@H]3CC[C@H](O)CC3)c2)s1` [Compound 9.10, trans-N-((trans-4-(3-Fluoro-1-methyl-1H-indazol-5-yl)cyclohexyl)methyl)-4-hydroxy-N-(3-(2-methoxythiazol-5-yl)phenyl)cyclohexanecarboxamide] returned a concentration giving a half-maximal response (EC50) of at most 250 nM.
For `COc1ccc([C@H]2CC[C@H](CN(c3cccc(-c4cnc(S(C)(=O)=O)s4)c3)C(=O)[C@H]3CC[C@H](O)CC3)CC2)cc1C` [Compound 7.12, trans-4-Hydroxy-N-((trans-4-(4-methoxy-3-methtylphenyl)cyclohexyl)methyl)-N-(3-(2-(methylsulfonyl)thiazol-5-yl)phenyl)cyclohexanecarboxamide], the EC50 lay within 250 to 1000 nM.
In the case of `COc1ncc(-c2cccc(N(C[C@H]3CC[C@H](c4ccc5c(c4)OCO5)CC3)C(=O)[C@H]3CC[C@H](O)CC3)c2)s1` [Compound 9.14, trans-N-((trans-4-(Benzo[d][1,3]dioxol-5-yl)cyclohexyl)methyl)-4-hydroxy-N-(3-(2-methoxythiazol-5-yl)phenyl)cyclohexanecarboxamide], the EC50 is at most 250 nM.
The figure for `Cc1cc([C@H]2CC[C@H](CN(c3cccc(-c4cnc(C5CC5)s4)c3)C(=O)[C@H]3CC[C@H](O)CC3)CC2)ccc1N(C)S(C)(=O)=O` [Compound 9.15, trans-N-(3-(2-Cyclopropylthiazol-5-yl)phenyl)-4-hydroxy-N-((trans-4-(3-methyl-4-(N-methylmethylsulfonamido)phenyl)cyclohexyl)methyl)cyclohexanecarboxamide] is 250 to 1000 nM; for `COc1ccc([C@H]2CC[C@H](CN(c3cccc(/C=C/c4nccs4)c3)C(=O)[C@H]3CC[C@H](O)CC3)CC2)cc1C` [Compound 6.06, trasn-4-Hydroxy-N-((trans-4-(4-methoxy-3-methylphenyl)cyclohexyl)methyl)-N-(3-((E)-2-(thiazol-2-yl)vinyl)phenyl)cyclohexanecarboxamide] it is at most 250 nM; for `C#Cc1cc([C@H]2CC[C@H](CN(c3cccc(-c4cnc(OC)s4)c3)C(=O)[C@H]3CC[C@H](O)CC3)CC2)ccc1OC` [Compound 9.05, trans-N-((trans-4-(3-Ethynyl-4-methoxyphenyl)cyclohexyl)methyl)-4-hydroxy-N-(3-(2-methoxythiazol-5-yl)phenyl)cyclohexanecarboxamide] it is at most 250 nM.

Source of the values: US20200131142A1, “FARNESOID X RECEPTOR AGONISTS AND USES THEREOF” (Metacrine, Inc., priority 2017, published 2020).
